Reference: ChEMBL document CHEMBL1201862, “PubChem BioAssay data set” (2004)
Active and inactive are the calls of the source.

Legend:
[1] = molecular target: G-protein coupled receptor 55 (Homo sapiens, UniProt Q9Y2T6); experiment: inhibition of LPI-stimulated GPR55 beta-arrestin translocation – imaging, U2OS, beta-arrestin-GFP, LPI agonist, primary screen (AID 2013); type: functional;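 also: antagonist potency measured as reduced agonist-driven arrestin aggregation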
[2] = molecular target: Voltage-dependent T-type calcium channel subunit alpha-1H (Homo sapiens, UniProt O95180); type: functional;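 also: channel activity triggered by adding a high calcium stimulation buffer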
[3] = general cell-killing toxicity readout – plate reader, dry powder samples, cytotoxicity control for PAX8 inhibitor project, dose response (AID 743021); type: functional, cell-based
[4] = DRD fibroblast viability loss – cell-based, non-viral oncogenic, luminescence, dose response (AID 1934); type: functional; conditions: Homo sapiens
[5] = molecular target: T1, Heat shock factor protein 1 (Mus musculus, UniProt P38532); experiment: decrease of HSF1-responsive luciferase luminescence – cell-based, NIH3T3, dose retest, confirmation (AID 2382); type: functional;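 also: NIH3T3 fibroblasts with HSF1-driven luciferase reporter stressed by proteasome inhibitor MG132; luminescence from HSF1-driven luciferase expression after 8 hours of MG132 stress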
T1 sequence (P38532 whole entry): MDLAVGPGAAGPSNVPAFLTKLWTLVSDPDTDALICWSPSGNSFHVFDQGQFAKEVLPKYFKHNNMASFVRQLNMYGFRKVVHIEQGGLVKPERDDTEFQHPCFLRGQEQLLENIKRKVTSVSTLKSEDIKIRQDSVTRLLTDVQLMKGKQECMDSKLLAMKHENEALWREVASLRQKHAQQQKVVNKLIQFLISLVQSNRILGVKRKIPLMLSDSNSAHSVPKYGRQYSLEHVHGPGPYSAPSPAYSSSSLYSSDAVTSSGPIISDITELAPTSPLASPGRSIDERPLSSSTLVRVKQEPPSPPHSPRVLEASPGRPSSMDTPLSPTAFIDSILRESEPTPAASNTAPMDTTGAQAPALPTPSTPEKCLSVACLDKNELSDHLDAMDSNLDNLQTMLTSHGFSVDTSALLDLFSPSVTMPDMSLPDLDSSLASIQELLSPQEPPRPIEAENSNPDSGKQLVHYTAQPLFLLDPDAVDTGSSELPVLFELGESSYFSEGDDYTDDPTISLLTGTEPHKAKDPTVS

[6] = tested on: BJ; experiment: BJ-TERT-LT-ST fibroblast viability loss – cell-based, RAS-independent, luminescence, dose response (AID 1935); type: functional; conditions: Homo sapiens;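 also: BJ fibroblasts immortalized with TERT plus LT and ST oncogenes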
[7] = HEK-293T cell viability reduction – luminescence, B-cell screen hits, cytotoxicity control for BCR NF-kB inhibitor project, dose response (AID 489021); type: functional, cell-based;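 also: HEK-293T cells carrying an NF-kB luciferase reporter; cells exposed to compound for about 14 hours before viability readout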
[8] = molecular target: Paired box protein Pax-8 (Homo sapiens, UniProt Q06710); experiment: PAX8 transcriptional activity inhibition in RMG-I – RMG-I cells, luciferase, cherry-pick, dose response (AID 687027); type: functional, cell-based;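 also: luciferase reporter driven by Pax8 target thyroperoxidase promoter measured by SteadyGlo luminescence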
[9] = tested on: BJ; experiment: BJ-TERT fibroblast viability loss – cell-based, RAS-independent, luminescence, dose response (AID 1933); type: functional; conditions: Homo sapiens
[10] = tested on: BJ; experiment: growth inhibition of engineered Ras-driven BJ cells – cell-based, alamar blue fluorescence, cherrypicked samples, dose response (AID 2631); type: functional; conditions: Homo sapiens;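 also: confirmatory dose-response assay in RAS-dependent BJ fibroblasts engineered with TERT, LT and ST, with cytotoxicity read by fluorescence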
[11] = tested on: BJ; experiment: cells; type: functional, cell-based; conditions: Homo sapiens
[12] = cells; type: functional, cell-based
[13] = cells; type: functional, cell-based; remark: listed apart in the source
[14] = molecular target: T2, Alkaline phosphatase, tissue-nonspecific isozyme (Homo sapiens, UniProt P05186); experiment: potency against alkaline phosphatase TNAP – biochemical, luminescent, dose response, SAR follow-up (AID 1056)
T2 sequence (P05186 whole entry): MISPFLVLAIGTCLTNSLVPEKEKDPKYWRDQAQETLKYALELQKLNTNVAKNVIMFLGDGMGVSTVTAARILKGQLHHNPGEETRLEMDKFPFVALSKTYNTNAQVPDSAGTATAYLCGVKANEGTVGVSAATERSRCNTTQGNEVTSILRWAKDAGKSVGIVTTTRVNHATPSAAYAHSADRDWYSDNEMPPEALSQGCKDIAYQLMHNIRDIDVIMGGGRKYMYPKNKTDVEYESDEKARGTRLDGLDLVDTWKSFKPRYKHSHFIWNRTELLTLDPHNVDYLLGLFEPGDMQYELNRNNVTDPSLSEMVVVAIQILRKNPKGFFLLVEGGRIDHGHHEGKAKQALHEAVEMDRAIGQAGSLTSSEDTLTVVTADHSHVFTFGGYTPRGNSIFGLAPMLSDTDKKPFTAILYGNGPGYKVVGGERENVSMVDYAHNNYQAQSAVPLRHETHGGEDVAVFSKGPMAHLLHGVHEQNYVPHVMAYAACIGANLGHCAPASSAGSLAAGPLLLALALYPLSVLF

[15] = molecular target: Glyceraldehyde-3-phosphate dehydrogenase (Homo sapiens, UniProt P04406)
[16] = tested on: HEK293; experiment: cells; conditions: Homo sapiens;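 also: cells exposed to compound for 14 hours overnight before viability readout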
[17] = molecular target: Tumor necrosis factor (Homo sapiens, UniProt P01375); experiment: analog potency on TNFa NF-kB signaling – cell-based, revised, SAR follow-up (AID 2337); type: functional
[18] = molecular target: Nucleotide-binding oligomerization domain-containing protein 2 (Homo sapiens, UniProt Q9HC29); experiment: PubChem AID 2334; type: functional
[19] = molecular target: T3, Nucleotide-binding oligomerization domain-containing protein 1 (Homo sapiens, UniProt Q9Y239); experiment: blockers of NOD1 pathway activity – revised, SAR follow-up (AID 2333); type: functional
T3 sequence (Q9Y239 whole entry): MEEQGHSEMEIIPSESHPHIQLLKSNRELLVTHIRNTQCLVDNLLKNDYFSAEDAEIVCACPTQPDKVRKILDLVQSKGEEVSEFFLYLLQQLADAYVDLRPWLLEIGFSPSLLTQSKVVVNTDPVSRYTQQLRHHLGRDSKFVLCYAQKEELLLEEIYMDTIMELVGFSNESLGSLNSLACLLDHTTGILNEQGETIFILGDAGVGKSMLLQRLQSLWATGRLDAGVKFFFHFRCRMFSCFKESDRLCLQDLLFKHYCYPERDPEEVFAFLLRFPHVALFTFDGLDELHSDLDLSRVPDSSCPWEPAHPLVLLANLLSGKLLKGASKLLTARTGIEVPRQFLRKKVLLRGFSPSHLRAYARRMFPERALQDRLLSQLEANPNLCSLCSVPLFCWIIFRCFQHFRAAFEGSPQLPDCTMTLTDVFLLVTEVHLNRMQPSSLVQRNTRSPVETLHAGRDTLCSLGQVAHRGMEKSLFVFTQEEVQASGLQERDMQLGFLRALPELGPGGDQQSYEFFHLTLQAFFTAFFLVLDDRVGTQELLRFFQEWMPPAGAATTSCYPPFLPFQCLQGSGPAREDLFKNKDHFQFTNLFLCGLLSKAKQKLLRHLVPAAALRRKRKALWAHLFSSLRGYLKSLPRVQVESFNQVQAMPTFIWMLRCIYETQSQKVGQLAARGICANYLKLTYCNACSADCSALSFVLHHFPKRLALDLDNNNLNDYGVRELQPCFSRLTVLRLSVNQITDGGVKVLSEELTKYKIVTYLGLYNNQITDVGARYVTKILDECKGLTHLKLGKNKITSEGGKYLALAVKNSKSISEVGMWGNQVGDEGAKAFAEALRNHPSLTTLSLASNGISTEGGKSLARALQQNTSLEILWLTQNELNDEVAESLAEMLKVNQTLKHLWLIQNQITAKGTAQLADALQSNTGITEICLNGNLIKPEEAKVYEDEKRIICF

[20] = molecular target: Troponin, cardiac muscle (Homo sapiens, UniProt P19429+P45379+P63316); experiment: Fluorescence-based biochemical high throughput dose response assay for activators of the calcium sensitivity of cardiac Regulated Thin Filaments (RTF). [Related pubchem assays (depositor defined):AID493008, AID493018, AID504382, AID504383]; type: protein-complex assay
[21] = molecular target: T4, RNA-binding protein pos-1 (Caenorhabditis elegans, UniProt G5EF15); experiment: disruptors of C. elegans POS-1 RNA interaction – biochemical, fluorescence polarization, dose response (AID 1964);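 also: purified POS-1 fused to maltose binding protein made in E. coli; potency of compounds blocking POS-1 binding to fluorescent RNA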
T4 sequence (G5EF15 whole entry): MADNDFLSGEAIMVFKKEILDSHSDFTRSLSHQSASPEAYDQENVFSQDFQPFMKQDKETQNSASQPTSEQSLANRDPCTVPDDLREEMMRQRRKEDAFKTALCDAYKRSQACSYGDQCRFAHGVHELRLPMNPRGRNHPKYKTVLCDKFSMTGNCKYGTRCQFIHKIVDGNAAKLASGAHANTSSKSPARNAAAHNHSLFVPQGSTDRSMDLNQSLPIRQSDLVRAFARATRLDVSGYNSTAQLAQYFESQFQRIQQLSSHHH

[22] = molecular target: T5, Zinc finger protein mex-5 (Caenorhabditis elegans, UniProt Q9XUB2); experiment: potency of MEX-5 RNA-binding blockers – biochemical, C. elegans, fluorescence polarization, dose response (AID 1960)
T5 sequence (Q9XUB2 whole entry): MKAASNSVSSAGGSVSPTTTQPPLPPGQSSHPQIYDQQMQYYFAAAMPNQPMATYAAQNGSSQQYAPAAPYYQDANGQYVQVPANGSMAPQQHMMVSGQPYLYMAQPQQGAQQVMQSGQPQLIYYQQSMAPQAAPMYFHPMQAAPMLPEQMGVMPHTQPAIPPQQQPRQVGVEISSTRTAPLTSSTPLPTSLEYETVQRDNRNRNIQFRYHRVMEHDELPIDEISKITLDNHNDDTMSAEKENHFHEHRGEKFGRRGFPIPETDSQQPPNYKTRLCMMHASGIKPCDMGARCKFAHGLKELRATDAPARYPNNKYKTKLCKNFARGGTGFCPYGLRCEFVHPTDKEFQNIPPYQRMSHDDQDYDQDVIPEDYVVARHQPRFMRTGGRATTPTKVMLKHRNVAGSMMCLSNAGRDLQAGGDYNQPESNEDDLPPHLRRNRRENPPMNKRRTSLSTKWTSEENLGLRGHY

[23] = molecular target: FAD-linked sulfhydryl oxidase ALR (Homo sapiens, UniProt P55789); experiment: ALR-catalysed DTT oxidation blockers – biochemical, H2O2 detection, luminescence, cherry-pick, dose response (AID 493248)
[24] = molecular target: DNA dC->dU-editing enzyme APOBEC-3G (Homo sapiens, UniProt Q9HC16); experiment: Dose Response confirmation of small molecule APOBEC3G DNA Deaminase Inhibitors via a fluorescence-based single-stranded DNA deaminase assay. [Related pubchem assays (depositor defined):AID493012, AID493028]; type: functional
[25] = molecular target: T6, X-box-binding protein 1 (Homo sapiens, UniProt P17861); type: functional, Cricetulus griseus;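 also: confirmatory dose-response counter-screen serving a CHOP assay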
T6 sequence (P17861 whole entry): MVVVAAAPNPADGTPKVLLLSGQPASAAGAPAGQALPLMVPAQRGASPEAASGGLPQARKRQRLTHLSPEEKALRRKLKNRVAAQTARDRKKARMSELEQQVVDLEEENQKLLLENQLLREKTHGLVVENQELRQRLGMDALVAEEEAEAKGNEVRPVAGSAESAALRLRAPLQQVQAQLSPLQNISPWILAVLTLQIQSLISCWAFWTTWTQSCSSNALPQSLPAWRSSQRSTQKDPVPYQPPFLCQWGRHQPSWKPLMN

[26] = molecular target: DNA damage-inducible transcript 3 protein (Mus musculus, UniProt P35639); type: functional, Cricetulus griseus
[27] = tested on: HeLa; experiment: ATP-based viability loss in HeLa cells – cell-based, CellTiter-Glo luminescence, cherry-pick samples, cytotoxicity control for MITF activator project, dose response (AID 540259); type: functional; conditions: Homo sapiens
[28] = Luminescence Cell-Based Dose Response HTS to Identify Activators of Luciferase Translation or Activity in H4 […] Cells. [Related pubchem assays: 1829 (Project Summary), 1814 (Primary HTS)]; type: functional
[29] = tested on: H4; experiment: Luminescence Cell-Based Dose Response HTS to Identify Activators of 5'UTR Stem-Loop Driven Prion Protein mRNA Translation in H4 Neuroglioblastoma Cells. [Related pubchem assays: 1829 (Project Summary), 1814 (Primary HTS)]; type: functional; conditions: Homo sapiens

Cc1ccc(CNCc2cc3c(C(C)(C)C)nn(-c4ccccc4)c3[nH]c2=O)cc1
IC50 [1]: 1.92 µM (active)

CCN(CCCNC(=O)CCc1nc(-c2ccc(C)cc2)no1)c1cccc(C)c1
EC50 [2]: 2.54 µM (active)

CCCC(C)NC(=O)c1ccc2[nH]c3c(c2c1)CC(C)CC3 (configuration not stated)
EC50 [2]: 60.1 µM (active)

COC(=O)[C@@H]1Cc2c([nH]c3ccccc23)C(C)(C)N1C(=O)CCl
AC50 [3]: 3.27 µM (active)
EC50 [4]: 2.65 µM (inconclusive)
EC50 [5]: 4.08 µM (active)
EC50 [6]: > 75 µM (inconclusive)
IC50 [7]: > 80 µM (inactive)
AC50 [8]: 1.26 µM (active)
EC50 [9]: 2.4 µM (inconclusive)
EC50 [10]: 18.1 µM (active)
EC50 [11]: 3.16 µM (inconclusive)

Cc1sc(NC(=O)c2ccco2)c(CN2CCC(C)CC2)c1C
EC50 [12]: > 350 µM (not active)
EC50 [13]: > 350 µM (not active)
EC50 [2]: 7.78 µM (active)

Cn1c(=O)n(C/C=C/c2ccccc2)c(=O)c2c1nc1n2CCCN1c1ccc(F)cc1
IC50 [1]: 0.624 µM (active)

COc1ccc(Br)cc1S(=O)(=O)Nc1ccc2ncccc2c1
IC50 [14]: > 100 µM (inactive)
IC50 [15]: > 100 µM (not active)

CC(C)c1cc(C(C)C)c(S(=O)(=O)Nc2cnc3ccccc3c2)c(C(C)C)c1
IC50 [14]: > 100 µM (inactive)
IC50 [15]: > 100 µM (not active)

O=C(NC1CCCc2c1cnn2-c1ccccc1F)c1cc(-c2ccccc2)n[nH]1 (configuration not stated)
IC50 [16]: > 20 µM (inactive)
IC50 [17]: 10.7 µM (active)
IC50 [18]: > 20 µM (inactive)
IC50 [19]: 16.9 µM (active)

O=C(NCc1ccc(Cl)cc1)C1CCN(c2cnccn2)CC1
EC50 [20]: > 71.4 µM (inactive)

CN(C)CCN(C)Cc1c2ccccc2c(CN(C)CCN(C)C)c2ccccc12
EC50 [21]: 12.1 µM (active)
EC50 [22]: 10.2 µM (active)
EC50 [20]: 34.3 µM (inactive)

Sc1nnc(-c2ccccn2)n1/N=C/c1cccc2ccccc12
AC50 [23]: 10.8 µM (active)
IC50 [24]: 2.35 µM (active)

Cc1n[nH]c(NC=C2C(=O)CC(c3ccco3)CC2=O)c1-c1ccc(Cl)cc1 (configuration not stated)
Absolute IC50 (XBP1) [25]: 10 µM
Absolute IC50 (CHOP) [26]: 10 µM

Cc1cc2c([nH]c3ccccc32)c2c1OC(C)(C)C=C2 [GRINIMIBINE]
Absolute IC50 (XBP1) [25]: 10 µM
AC50 [27]: 41.3 µM (active)
EC50 [28]: 27.7 µM (active)
EC50 [29]: 20.6 µM (active)
Absolute IC50 (CHOP) [26]: 10 µM
